# Data: patent publication US11739089B2, “Acetamido-phenyltetrazole derivatives and methods of using the same” (Athenex, Inc., priority 2020, dated 2023)
# Read-outs that look alike come from different tables or passages of the source.
# Legend:
# [1] = target: CYP3A4 (Homo sapiens (Human), UniProt P08684); assay: CYP3A4 inhibitory activity: Luciferin-IPA (P450-Glo) assay with human liver microsome
# Protocol: Cytochrome P450 activity may be determined by a P450-Glo™ assay (Promega) with human liver microsomes wherein the compounds of the present disclosure are dosed at different concentrations in buffer and incubated. Dose-response curve and IC50 data may be obtained and fit to a nonlinear regression model using GraphPad Prism software (v6.0).
# The standard final Compound concentrations were 37, 111, 333, 1000, and 3000 nM. 12.5 μL of the Compound dilutions were transferred to a white 96-well plate. 1450 μL (enough for a whole plate) of 4× assay buffer (400 mM potassium phosphate buffer (10 mL 1M potassium phosphate buffer: 8.02 mL 1M K2HPO4+1.98 mL 1M KH2PO4 (1.4 g K2HPO4+0.27 g KH2PO4 in 10 mL H2O), 32 μM Luciferin-IPA (Promega V9002)) 580 μl of 1 M K3PO4 buffer, 870 μL H2O, 14 μL of 3 mM Luciferin-IPA, and 18 μL of human liver microsome (Sigma M0317-1VL) was made. 12.5 μL of 4× assay buffer was added to each well. For the well of blank control, 12.5 μL of 4× assay buffer without liver microsome was added. The plate was incubated at room temperature for 15 minutes. 2.75 mL NADPH buffer was made as follows: 2.42 mL H2O, 275 μL solution A and 55 μL solution B (NADPH regeneration system, Promega V9510). 25 μL of the buffer was added to each well. The plates were incubated at 37° C. for 11 minutes. 50 μL of luciferin detection reagent (Promega V9002) was added and the plates were incubated at room temperature for 5 minutes. The plate was read with a luminometer.
# The dose-response curve and IC50 were obtained by fitting data to nonlinear regression model using GraphPad Prism software (v6.0).
# [2] = target: P-glycoprotein (Homo sapiens (Human), UniProt P08183); assay: P-glycoprotein inhibitory activity: MTT cell growth assay in P-gp overexpressing MES-SA/DX5 cells with docetaxel or paclitaxel; format: cell-based; settings: 3 days, with 100 nM docetaxel or 200 nM paclitaxel, MTT readout
# P-glycoprotein, sequence (P08183 whole entry): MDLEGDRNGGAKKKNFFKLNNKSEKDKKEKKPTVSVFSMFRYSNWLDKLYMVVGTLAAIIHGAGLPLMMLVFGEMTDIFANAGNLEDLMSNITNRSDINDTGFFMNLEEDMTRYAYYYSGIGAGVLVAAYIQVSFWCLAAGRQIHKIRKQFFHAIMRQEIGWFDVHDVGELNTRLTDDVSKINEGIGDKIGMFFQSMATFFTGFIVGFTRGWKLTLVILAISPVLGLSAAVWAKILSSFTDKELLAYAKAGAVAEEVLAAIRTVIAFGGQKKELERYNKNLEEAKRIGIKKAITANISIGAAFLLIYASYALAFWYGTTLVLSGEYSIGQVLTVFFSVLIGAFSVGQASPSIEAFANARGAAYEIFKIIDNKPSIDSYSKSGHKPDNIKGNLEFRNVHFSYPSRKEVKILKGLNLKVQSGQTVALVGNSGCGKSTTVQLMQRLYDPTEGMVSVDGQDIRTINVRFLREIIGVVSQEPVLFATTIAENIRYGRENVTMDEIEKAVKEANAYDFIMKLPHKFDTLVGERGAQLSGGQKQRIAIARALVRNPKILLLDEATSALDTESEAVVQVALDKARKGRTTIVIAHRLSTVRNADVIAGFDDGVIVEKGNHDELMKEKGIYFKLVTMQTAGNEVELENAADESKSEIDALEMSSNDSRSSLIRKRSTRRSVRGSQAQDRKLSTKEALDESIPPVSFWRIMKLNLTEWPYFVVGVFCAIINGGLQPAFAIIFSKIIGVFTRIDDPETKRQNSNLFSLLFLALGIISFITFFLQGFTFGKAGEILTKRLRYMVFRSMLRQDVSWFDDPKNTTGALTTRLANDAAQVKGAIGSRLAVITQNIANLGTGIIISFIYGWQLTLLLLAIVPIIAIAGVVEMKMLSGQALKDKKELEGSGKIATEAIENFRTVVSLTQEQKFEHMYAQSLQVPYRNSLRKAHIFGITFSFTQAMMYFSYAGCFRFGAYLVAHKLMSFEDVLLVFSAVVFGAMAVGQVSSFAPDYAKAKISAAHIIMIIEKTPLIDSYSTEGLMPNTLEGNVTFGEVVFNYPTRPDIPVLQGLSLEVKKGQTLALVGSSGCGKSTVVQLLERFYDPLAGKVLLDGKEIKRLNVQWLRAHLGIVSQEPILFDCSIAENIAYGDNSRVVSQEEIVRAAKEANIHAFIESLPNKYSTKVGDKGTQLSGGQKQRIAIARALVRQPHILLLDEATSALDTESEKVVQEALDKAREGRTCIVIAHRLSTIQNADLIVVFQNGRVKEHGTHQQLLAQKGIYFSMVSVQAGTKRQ
# Protocol: P-glycoprotein inhibitory activity may be determined by an assay wherein P-glycoprotein overexpressed cell lines are treated with increasing concentrations of a compound of the present disclosure and therapeutic agent for three days, followed by an MTT assay.
# Cell growth percentage may be calculated with the following equation: Cell growth percentage=(T−T0)/(C−T0)×100%, wherein T is OD of the test well exposure to Compound; C is OD of the control well without Compound treatment; and T0 is OD at time zero.
# A P-glycoprotein overexpressing cell line derived from the human uterine sarcoma cell line MES-SA (i.e., MES-SA/DX5 cells (ATCC)) was seeded by stepwise exposures to increasing concentrations of doxorubicin, in a 96-well plate at 6,500 cells/100 μL media (McCoy's 5A+10% FBS) in each well. The cells were incubated overnight at 37° C. 5% CO2. Compounds were diluted in a separate 96-well plate to yield 11× of final concentration (final Compound concentrations were 0, 5, 20, 80, 320, and 1280 nM and the final docetaxel concentration was 100 nM or the final paclitaxel concentration was 200 nM). DMSO was used as a negative control and known P-glycoprotein inhibitor, encequidar methane sulfonic acid monohydrate (HM30181A), was used as a positive control. 10 μL of the 11× dilutions was added to the appropriate well, P-glycoprotein inhibition wells comprised Compound+docetaxel (or Compound+paclitaxel). The compound toxicity wells comprised 1280 nM Compound+10 μL of culture media. Treated the cells were incubated for 3 days at 37° C. 5% CO2.
# To value (reflecting the starting number of cells upon Compound treatment) of 3 wells of cells was determined by performing the following steps 1-4 as described below.
# 1. 10 μL MTT (5 mg/mL in PBS) was added to each well and incubated for 1.5 hours at 37° C. 5% CO2.
# 2. Culture media was removed and 100 μL of DMSO was added to each well.
# 3. The plate was gently shook until all purple MTT formazan crystals were dissolved. OD540 was then measured using microplate reader.
# 4. Cell growth percentage was calculated with the following equation: Cell growth percentage=(T−T0)/(C−T0)×100%, wherein T is OD of the test well exposure to Compound; C is OD of the control well without Compound treatment; and T0 is OD at time zero.
# CYP3A4, sequence (P08684 whole entry): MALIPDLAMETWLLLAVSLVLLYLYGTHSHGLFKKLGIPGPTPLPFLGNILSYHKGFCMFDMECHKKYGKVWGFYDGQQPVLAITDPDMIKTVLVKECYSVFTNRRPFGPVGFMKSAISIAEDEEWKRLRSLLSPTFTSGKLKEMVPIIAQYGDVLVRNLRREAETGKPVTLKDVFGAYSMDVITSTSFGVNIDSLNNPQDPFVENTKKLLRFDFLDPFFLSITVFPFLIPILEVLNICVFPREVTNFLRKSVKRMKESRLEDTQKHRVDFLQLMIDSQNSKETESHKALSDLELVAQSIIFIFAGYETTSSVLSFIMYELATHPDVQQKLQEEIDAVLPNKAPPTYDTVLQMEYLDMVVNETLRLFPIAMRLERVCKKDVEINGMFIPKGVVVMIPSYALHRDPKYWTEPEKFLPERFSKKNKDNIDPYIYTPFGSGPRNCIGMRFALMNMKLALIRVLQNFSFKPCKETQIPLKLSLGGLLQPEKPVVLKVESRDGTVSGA
IC50 [1] [nM],EC50 [2] [nM],"IC50 ([1]; human, microsomes, 11 min) [nM]",SMILES
500 to 1000,< 100,–,"COc1cc(NC(=O)c2cnc3ccccc3c2)c(-c2nnn(-c3ccc(CCN4CCc5cnccc5C4)cc3)n2)cc1OCc1ccccc1 [Compound 13, N-(4-(Benzyloxy)-2-(2-(4-(2-(3,4-dihydro-2,6-naphthyridin-2(1H)-yl)ethyl)phenyl)-2H-tetrazol-5-yl)-5-methoxyphenyl)quinoline-3-carboxamide]"
500 to 1000,250 to 500,–,"COc1cc2c(cc1OC)CN(CCc1ccc(-n3nnc(-c4cc(OC)c(OC)cc4NC(=O)c4ccc(-n5ccnc5)cc4)n3)cc1)CC2 [Compound 23, N-(2-(2-(4-(2-(6,7-Dimethoxy-3,4-dihydroisoquinolin-2(1H)-yl)ethyl)phenyl)-2H-tetrazol-5-yl)-4,5-dimethoxyphenyl)-4-(1H-imidazol-1-yl)benzamide]"
–,< 100,> 1000,"COc1cc2c(cc1OC)CN(CCc1ccc(-n3nnc(-c4cc(Oc5cccnc5)ccc4NC(=O)c4cc(=O)c5ccccc5o4)n3)cc1)CC2 [Compound 24, N-(2-(2-(4-(2-(6,7-Dimethoxy-3,4-dihydroisoquinolin-2(1H)-yl)ethyl)phenyl)-2H-tetrazol-5-yl)-4-(pyridin-3-yloxy)phenyl)-4-oxo-4H-chromene-2-carboxamide]"
100 to 250,100 to 250,–,"COc1cc(NC(=O)c2cnc3ccccc3c2)c(-c2nnn(-c3ccc(CCN4CCc5cnccc5C4)cc3)n2)cc1OC [Compound 2, N-(2-(2-(4-(2-(3,4-Dihydro-2,6-naphthyridin-2(1H)-yl)ethyl)phenyl)-2H-tetrazol-5-yl)-4,5-dimethoxyphenyl)quinoline-3-carboxamide]"
500 to 1000,100 to 250,–,"COc1cc2c(cc1OC)CN(CCc1ccc(-n3nnc(-c4cc(OCCc5cccnc5)ccc4NC(=O)c4cc(=O)c5ccccc5o4)n3)cc1)CC2 [Compound 28, N-(2-(2-(4-(2-(6,7-Dimethoxy-3,4-dihydroisoquinolin-2(1H)-yl)ethyl)phenyl)-2H-tetrazol-5-yl)-4-(2-(pyridin-3-yl)ethoxy)phenyl)-4-oxo-4H-chromene-2-carboxamide]"
–,< 100,> 1000,"COc1cc2c(cc1OC)CN(CCc1ccc(-n3nnc(-c4cc(OC)c(OC)cc4NC(=O)c4cc(=O)c5ccccc5o4)n3)cc1)CC2 [Encequidar methanesulfonate monohydrate, reference compound]"
–,< 100,> 1000,"COc1cc2c(cc1OC)CN(CCc1ccc(-n3nnc(-c4cc(OCc5cccnc5)c(OC)cc4NC(=O)c4cc(=O)c5ccccc5o4)n3)cc1)CC2 [Compound 30, N-(2-(2-(4-(2-(6,7-Dimethoxy-3,4-dihydroisoquinolin-2(1H)-yl)ethyl)phenyl)-2H-tetrazol-5-yl)-5-methoxy-4-(pyridin-3-ylmethoxy)phenyl)-4-oxo-4H-chromene-2-carboxamide]"
–,100 to 250,> 1000,"COc1cc2c(cc1OC)CN(CCc1ccc(-n3nnc(-c4cc(OC)c(OC)cc4NC(=O)c4ccc(-c5cccnc5)cc4)n3)cc1)CC2 [Compound 22, N-(2-(2-(4-(2-(6,7-Dimethoxy-3,4-dihydroisoquinolin-2(1H)-yl)ethyl)phenyl)-2H-tetrazol-5-yl)-4,5-dimethoxyphenyl)-4-(pyridin-3-yl)benzamide]"
500 to 1000,100 to 250,–,"COc1cc(NC(=O)c2cc(=O)c3ccccc3o2)c(-c2nnn(-c3ccc(CCN4CCc5cnccc5C4)cc3)n2)cc1OC [Compound 7, N-(2-(2-(4-(2-(3,4-Dihydro-2,6-naphthyridin-2(1H)-yl)ethyl)phenyl)-2H-tetrazol-5-yl)-4,5-dimethoxyphenyl)-4-oxo-4H-chromene-2-carboxamide]"
> 1000,< 100,–,"COC(=O)c1ccc(-c2nnn(-c3ccc(CCN(C)Cc4ccc5c(cnn5C)c4)cc3)n2)c(NC(=O)c2cc(=O)c3ccccc3o2)c1 [Compound 15, Methyl 4-(2-(4-(2-(methyl((1-methyl-1H-indazol-5-yl)methyl)amino)ethyl)phenyl)-2H-tetrazol-5-yl)-3-(4-oxo-4H-chromene-2-carboxamido)benzoate]"
–,100 to 250,> 1000,"COc1cc(NC(=O)c2cc(=O)c3ccccc3o2)c(-c2nnn(-c3ccc(CCN4CCc5ccncc5C4)cc3)n2)cc1OC [Compound 6, N-(2-(2-(4-(2-(3,4-Dihydro-2,7-naphthyridin-2(1H)-yl)ethyl)phenyl)-2H-tetrazol-5-yl)-4,5-dimethoxyphenyl)-4-oxo-4H-chromene-2-carboxamide]"
–,< 100,> 1000,"COc1cc(NC(=O)c2cc(=O)c3ccccc3o2)c(-c2nnn(-c3ccc(CCN4CCn5cncc5C4)cc3)n2)cc1OCc1ccccc1 [Compound 18, N-(4-(Benzyloxy)-2-(2-(4-(2-(5,6-dihydroimidazo[1,5-a]pyrazin-7(8H)-yl)ethyl)phenyl)-2H-tetrazol-5-yl)-5-methoxyphenyl)-4-oxo-4H-chromene-2-carboxamide]"
500 to 1000,> 1000,–,"COc1cc(NC(=O)c2cnc3ccccc3n2)c(-c2nnn(-c3ccc(CCN4CCc5cnccc5C4)cc3)n2)cc1OC [Compound 9, N-(2-(2-(4-(2-(3,4-Dihydro-2,6-naphthyridin-2(1H)-yl)ethyl)phenyl)-2H-tetrazol-5-yl)-4,5-dimethoxyphenyl)quinoxaline-2-carboxamide]"
–,> 1000,> 1000,"COc1cc(NC(=O)c2cc(=O)c3ccccc3o2)c(-c2nnn(-c3ccc(CCN4CCn5cncc5C4)cc3)n2)cc1OC [Compound 1, A-(2-(2-(4-(2-(5,6-Dihydroimidazo[1,5-a]pyrazin-7(8H)-yl)ethyl)phenyl)-2H-tetrazol-5-yl)-4,5-dimethoxyphenyl)-4-oxo-4H-chromene-2-carboxamide]"
–,< 100,> 1000,"COc1cc2c(cc1OC)CN(CCc1ccc(-n3nnc(-c4cc(OCc5cccnc5)ccc4NC(=O)c4cc(=O)c5ccccc5o4)n3)cc1)CC2 [Compound 27, N-(2-(2-(4-(2-(6,7-Dimethoxy-3,4-dihydroisoquinolin-2(1H)-yl)ethyl)phenyl)-2H-tetrazol-5-yl)-4-(pyridin-3-ylmethoxy)phenyl)-4-oxo-4H-chromene-2-carboxamide]"
250 to 500,> 1000,–,"COc1cc(NC(=O)c2cc(=O)c3ccccc3o2)c(-c2nnn(-c3ccc(CCN4CCc5ccc(-n6ccnc6)cc5C4)cc3)n2)cc1OC [Compound 10, N-(2-(2-(4-(2-(7-(1H-Imidazol-1-yl)-3,4-dihydroisoquinolin-2(1H)-yl)ethyl)phenyl)-2H-tetrazol-5-yl)-4,5-dimethoxyphenyl)-4-oxo-4H-chromene-2-carboxamide]"
–,< 100,> 1000,"COc1cc2c(cc1OC)CN(CCc1ccc(-n3nnc(-c4cc(OCc5ccncc5)ccc4NC(=O)c4cc(=O)c5ccccc5o4)n3)cc1)CC2 [Compound 26, N-(2-(2-(4-(2-(6,7-Dimethoxy-3,4-dihydroisoquinolin-2(1H)-yl)ethyl)phenyl)-2H-tetrazol-5-yl)-4-(pyridin-4-ylmethoxy)phenyl)-4-oxo-4H-chromene-2-carboxamide]"
–,< 100,> 1000,"COc1cc2c(cc1OC)CN(CCc1ccc(-n3nnc(-c4cc(OC)c(OC)cc4NC(=O)c4ccc(-c5ccncc5)cc4)n3)cc1)CC2 [Compound 21, N-(2-(2-(4-(2-(6,7-Dimethoxy-3,4-dihydroisoquinolin-2(1H)-yl)ethyl)phenyl)-2H-tetrazol-5-yl)-4,5-dimethoxyphenyl)-4-(pyridin-4-yl)benzamide]"
